From patent publication US6692743B1, “Apoptosis of naive human NK cells by crosslinking of their FcγRIIIa molecules with a rat IgG2b (LO-CD2a/BTI-322) or its IgG1 humanized monoclonal antibody” (Universite Catholique de Louvain, priority 1998, dated 2004)
Numbered stars: 1 amine (or outer) side, 2 acyl side, 3 side chain; on linkers, the order of the positions; unused ones are H or OH. Bridge positions count the residues as written; N and C are the ends. Square brackets hold non-standard residues; d marks the D form. Peptide text beside a SMILES is read from it. I, II: the chains in the order shown. Actinocin(9to1) = Cc1c2oc3c(C)ccc(C(=O)[*:1])c3nc-2c(C(=O)[*:2])c(N)c1=O; NMeV = CN[C@H](C(=O)O)C(C)C; Sar = CNCC(=O)O

Tested on: freshly isolated NK cells
Assay: Effect of different inhibitors on LO-CD2a mediated NK apoptosis (PI, flow cytometry)
Format: cell-based, human
Details: 3 h pre-incubation with inhibitor, then 3 hours with LO-CD2a; 5 donors
Method: Effect of different inhibitors on LO-CD2a mediated NK apoptosis. 100 ul of freshly isolated NK cells (10^6/ml) were pre-incubated for 3 h at 37° C. in a 96 well plate with EGTA (20 mM), staurosporin (250 nM), quinacrine ([…]), cyclosporin A ([…]), FK506 ([…]), wortmannin (500 ng/ml), concanamycin A ([…]), cytochalasine D (1 mg/ml), actinomycin) (500 ng/ml final concentration), NOK-1 (25 mg/ml) or medium alone. After incubation for 3 hours with LO-CD2a ([…] final concentration) propidium iodide was added and cell mortality was analysed by flow cytometry.

Row | Molecule | inhibition of LO-CD2a mediated NK apoptosis (in words)
1 | O=C(O)CN(CCOCCOCCN(CC(=O)O)CC(=O)O)CC(=O)O [EGTA] | completely inhibited
2 | Cc1c2oc3c(C)ccc(C(=O)N[C@@H]4C(=O)N[C@H](C(C)C)C(=O)N5CCC[C@H]5C(=O)N(C)CC(=O)N(C)[C@@H](C(C)C)C(=O)O[C@@H]4C)c3nc-2c(C(=O)N[C@@H]2C(=O)N[C@H](C(C)C)C(=O)N3CCC[C@H]3C(=O)N(C)CC(=O)N(C)[C@@H](C(C)C)C(=O)O[C@@H]2C)c(N)c1=O [actinomycin D, Actinomycin D] (I: T[dV]P[Sar][NMeV] / II: T[dV]P[Sar][NMeV]; ester I:1-I:C, II:1-II:C; linker I:N-II:N via Actinocin(9to1)) | did not have any blocking effect
3 | C/C=C/[C@H]1O[C@@](O)([C@@H](C)[C@H](O)[C@H](C)[C@H]2OC(=O)/C(OC)=C/C(C)=C/[C@@H](C)[C@@H](O)[C@@H](CC)[C@@H](O)[C@H](C)C/C(C)=C/C=C/[C@@H]2OC)C[C@@H](O[C@H]2C[C@@H](O)[C@H](OC(N)=O)[C@@H](C)O2)[C@@H]1C [concanamycin A, Concanamycin A] | failed to inhibit apoptosis
4 | CCN(CC)CCCC(C)Nc1c2ccc(Cl)cc2nc2ccc(OC)cc12 (centres unmarked) [quinacrine, Quinacrine] | completely inhibited
5 | Cyclosporin A | partially inhibited
